# Assays:
# [1] = tested on: GSPII-B domain Q190E Q218E double mutant; set-up: method as in PMID 39615687; settings: in vitro, pH 7.5; cited from earlier work
# PilF159-302 WT = target: T1, PilF159-302 WT (Thermus thermophilus, UniProt Q72H73); set-up: method as in PMID 39615687; settings: GSPII-B (PilF159-302) four-helix bundle; cited from earlier work
# T1 sequence (Q72H73 159-302): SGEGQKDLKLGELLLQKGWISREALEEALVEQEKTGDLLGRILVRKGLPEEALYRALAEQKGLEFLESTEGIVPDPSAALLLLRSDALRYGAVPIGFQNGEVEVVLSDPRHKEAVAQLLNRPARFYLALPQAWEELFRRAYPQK
# PilF159-221 = tested on: PilF159-221; set-up: method as in PMID 39615687; settings: cited from earlier work
# PilF159-302 Q190E = target: T2, PilF159-302 Q190E (Thermus thermophilus, UniProt Q72H73, Q190E); assay: ITC c-di-GMP binding to Q190E mutant, pH series; settings: 20 °C
# T2 sequence (Q72H73 159-302 Q190E): T1 sequence (Q72H73 159-302)
# Text: To characterize c-di-GMP binding by PilF159-302, the Q190E and Q218E constructs via isothermal titration calorimetry (ITC) and X-ray crystallography unlabeled c-di-GMP was synthesized using a constitutively active mutant of a diguanylate cyclase from the thermophilic bacterium Thermogata maritima ^[4^4,4^5]. For NMR experiments ^13C,^15N labelled c-di-GMP was synthesized identically using ^13C,^15N labelled GTP as a substrate.
# c-di-GMP binding capabilities of PilF159-302, its mutant constructs PilF159-302 Q190E and PilF159-302 Q218E at varying pH-values were investigated by isothermal titration calorimetry (ITC) experiments in triplicate. All measurements were conducted at 20 °C using a MicroCal ITC200 (Malvern Panalytical, UK). For PilF159-302 Q190E and PilF159-302 Q218E ITC-measurements were conducted in a pH range from pH 8.5 – 4.0 with the buffering agent adjusted to the respective pH-range. For the pH-range 8.5 – 7.5 a sample buffer of 50 mM Tris, 200 mM NaCl and 1 mM β-Me was used. For pH values 7.0 – 6.0 a sample buffer of 50 mM BisTris, 200 mM NaCl, 1 mM β-Me and for pH 5.5 – 4.0 a sample buffer of 50 mM NaAc, 200 mM NaCl, 1 mM β-Me was used. For reference PilF159-302 was titrated with c-di-GMP at pH 8.5 in 50 mM Tris pH 8.5, 200 mM NaCl, 1 mM β-Me and at pH 4.0 in 50 mM NaAc pH 4.0, 200 mM NaCl, 1 mM β-Me. In order to test whether the buffer reagents have an influence on the measured thermodynamic parameters, cross measurements were performed in the region of the pH transitions. To this end, additional measurements with BisTris at pH 7.5 and 5.5, with Tris at pH 7.0 and with NaAc at pH 6.0 were carried out as singlets. The buffer agents had no influence on measured KD-values and resulted only in small changes of the ΔH values. All protein samples were dialyzed two times against 500 ml of the respective sample buffer (1 L in total) at 4 °C for at least 16 hours per step using a dialysis chamber with a nominal 3.5 kDa molecular weight cutoff (ZelluTrans, ROTH). To prepare the ITC-measurements protein and c-di-GMP sample were adjusted to the respective concentration using the dialysis buffer. Protein and c-di-GMP concentration ranged from 20 to 50 µM (protein) and 200 to 500 µM (c-di-GMP) depending on the c-di-GMP binding capabilities at the different pH-values to optimize precision of the measurements. For pH 8.5 – 7.0 a protein concentration of 50 µM with 500 µM c-di-GMP was used. For pH 6.5 – 5.0 a protein concentration of 30 µM with 300 µM c-di-GMP and for pH 4.5 – 4.0 a protein concentration of 20 µM with 200 µM c-di-GMP was used. The following protocol was utilized for each measurement. To 270 µl protein a total of 40 µl c-di-GMP was titrated in 21 injections with a duration of 4 s in intervals of 180 s with a stirring speed of 750 rpm. The first injection of 0.2 µl c-di-GMP with a duration of 0.4 s was carried out after an initial delay of 120 s, which was followed by 20 injections of 2 µl each with a duration of 4 s. During the measurement, the feedback mode was set to high and the reference power to 11 µcal s^-1. All thermograms were processed using Origin 7.0 (OriginLab) using the one-site binding model.
# [2] = Bis-Tris, pH 5.5, buffer cross measurement, singlet
# [3] = Bis-Tris, pH 7.5, buffer cross measurement, singlet
# [4] = Na-Acetate, pH 6.0, buffer cross measurement, singlet
# [5] = Tris, pH 7.0, buffer cross measurement, singlet
smiles,measurement,setting,value
Nc1nc2c(ncn2C2OC3COP(=O)(O)OC4C(COP(=O)(O)OC3C2O)OC(n2cnc3c(=O)[nH]c(N)nc32)C4O)c(=O)[nH]1 (stereo not drawn) [c-di-GMP],c-di-GMP binding,[1],did not bind
same,Kd,PilF159-302 WT,~6 nM
same,c-di-GMP binding affinity of subdomain relative to full-length domain,PilF159-221,comparable
same,-TΔS,PilF159-302 Q190E; [2],-2.53 kcal/mol
same,Kd,PilF159-302 Q190E; [2],71 nM
same,ΔG,PilF159-302 Q190E; [2],-9.58 kcal/mol
same,ΔH,PilF159-302 Q190E; [2],-7.06 kcal/mol
same,-TΔS,"PilF159-302 Q190E; Bis-Tris, pH 6.0",-3.45 ± 0.05 kcal/mol
same,Kd,"PilF159-302 Q190E; Bis-Tris, pH 6.0",67 ± 3 nM
same,N,"PilF159-302 Q190E; Bis-Tris, pH 6.0",0.96 ± 0.01
same,ΔG,"PilF159-302 Q190E; Bis-Tris, pH 6.0",-9.40 ± 0.02 kcal/mol
same,ΔH,"PilF159-302 Q190E; Bis-Tris, pH 6.0",-5.97 ± 0.05 kcal/mol
same,-TΔS,"PilF159-302 Q190E; Bis-Tris, pH 6.5",-3.55 ± 0.20 kcal/mol
same,Kd,"PilF159-302 Q190E; Bis-Tris, pH 6.5",160 ± 34 nM
same,N,"PilF159-302 Q190E; Bis-Tris, pH 6.5",0.72 ± 0.12
same,ΔG,"PilF159-302 Q190E; Bis-Tris, pH 6.5",-9.12 ± 0.13 kcal/mol
same,ΔH,"PilF159-302 Q190E; Bis-Tris, pH 6.5",-5.58 ± 0.09 kcal/mol
same,-TΔS,"PilF159-302 Q190E; Bis-Tris, pH 7.0",-4.14 ± 0.23 kcal/mol
same,Kd,"PilF159-302 Q190E; Bis-Tris, pH 7.0",236 ± 8 nM
same,N,"PilF159-302 Q190E; Bis-Tris, pH 7.0",0.98 ± 0.01
same,ΔG,"PilF159-302 Q190E; Bis-Tris, pH 7.0",-8.88 ± 0.02 kcal/mol
same,ΔH,"PilF159-302 Q190E; Bis-Tris, pH 7.0",-4.76 ± 0.21 kcal/mol
same,-TΔS,PilF159-302 Q190E; [3],-2.51 kcal/mol
same,Kd,PilF159-302 Q190E; [3],505 nM
same,ΔG,PilF159-302 Q190E; [3],-8.44 kcal/mol
same,ΔH,PilF159-302 Q190E; [3],-5.93 kcal/mol
same,-TΔS,"PilF159-302 Q190E; Na-Acetate, pH 4.0",-2.59 ± 0.37 kcal/mol
same,Kd,"PilF159-302 Q190E; Na-Acetate, pH 4.0",40 ± 13 nM
same,N,"PilF159-302 Q190E; Na-Acetate, pH 4.0",0.98 ± 0.01
same,ΔG,"PilF159-302 Q190E; Na-Acetate, pH 4.0",-9.96 ± 0.22 kcal/mol
same,ΔH,"PilF159-302 Q190E; Na-Acetate, pH 4.0",-7.37 ± 0.17 kcal/mol
same,-TΔS,"PilF159-302 Q190E; Na-Acetate, pH 4.5",-2.27 ± 0.87 kcal/mol
same,Kd,"PilF159-302 Q190E; Na-Acetate, pH 4.5",42 ± 13 nM
same,N,"PilF159-302 Q190E; Na-Acetate, pH 4.5",0.95 ± 0.13
same,ΔG,"PilF159-302 Q190E; Na-Acetate, pH 4.5",-9.92 ± 0.18 kcal/mol
same,ΔH,"PilF159-302 Q190E; Na-Acetate, pH 4.5",-7.65 ± 0.98 kcal/mol
same,-TΔS,"PilF159-302 Q190E; Na-Acetate, pH 5.0",-0.27 ± 0.51 kcal/mol
same,Kd,"PilF159-302 Q190E; Na-Acetate, pH 5.0",78 ± 11 nM
same,N,"PilF159-302 Q190E; Na-Acetate, pH 5.0",0.91 ± 0.04
same,ΔG,"PilF159-302 Q190E; Na-Acetate, pH 5.0",-9.54 ± 0.09 kcal/mol
same,ΔH,"PilF159-302 Q190E; Na-Acetate, pH 5.0",-9.28 ± 0.43 kcal/mol
same,-TΔS,"PilF159-302 Q190E; Na-Acetate, pH 5.5",-1.11 ± 0.16 kcal/mol
same,Kd,"PilF159-302 Q190E; Na-Acetate, pH 5.5",74 ± 8 nM
same,N,"PilF159-302 Q190E; Na-Acetate, pH 5.5",1.02 ± 0.02
same,ΔG,"PilF159-302 Q190E; Na-Acetate, pH 5.5",-9.56 ± 0.07 kcal/mol
same,ΔH,"PilF159-302 Q190E; Na-Acetate, pH 5.5",-8.54 ± 0.04 kcal/mol
same,-TΔS,PilF159-302 Q190E; [4],-0.49 kcal/mol
same,Kd,PilF159-302 Q190E; [4],96 nM
same,ΔG,PilF159-302 Q190E; [4],-9.41 kcal/mol
same,ΔH,PilF159-302 Q190E; [4],-8.93 kcal/mol
same,-TΔS,PilF159-302 Q190E; [5],-6.09 kcal/mol
same,Kd,PilF159-302 Q190E; [5],223 nM
same,ΔG,PilF159-302 Q190E; [5],-8.92 kcal/mol
same,ΔH,PilF159-302 Q190E; [5],-2.81 kcal/mol
same,-TΔS,"PilF159-302 Q190E; Tris, pH 7.5",-4.63 ± 0.19 kcal/mol
same,Kd,"PilF159-302 Q190E; Tris, pH 7.5",511 ± 13 nM
same,N,"PilF159-302 Q190E; Tris, pH 7.5",0.95 ± 0.09
same,ΔG,"PilF159-302 Q190E; Tris, pH 7.5",-8.44 ± 0.02 kcal/mol
same,ΔH,"PilF159-302 Q190E; Tris, pH 7.5",-3.81 ± 0.20 kcal/mol
same,-TΔS,"PilF159-302 Q190E; Tris, pH 8.0",-3.37 ± 0.65 kcal/mol
same,Kd,"PilF159-302 Q190E; Tris, pH 8.0",729 ± 44 nM
same,N,"PilF159-302 Q190E; Tris, pH 8.0",0.84 ± 0.17
same,ΔG,"PilF159-302 Q190E; Tris, pH 8.0",-8.23 ± 0.04 kcal/mol

# — paper PMC12207366, “Protonated Glutamate and Aspartate Side Chains Can Recognize Phosphodiester Groups via Strong and Short Hydrogen Bonds in Biomacromolecular Complexes” (Angewandte Chemie (International Ed. in English), 2025)
